In test [1] the target is T1, DC-SIGNR CRD (Homo sapiens, UniProt Q9H2X3).
T1 sequence (Q9H2X3 262-399): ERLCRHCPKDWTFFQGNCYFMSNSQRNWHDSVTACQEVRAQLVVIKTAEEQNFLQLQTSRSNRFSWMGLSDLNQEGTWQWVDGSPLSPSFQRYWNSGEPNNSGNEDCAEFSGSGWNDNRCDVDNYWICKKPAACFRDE
Nature of the test: 1H-15N HSQC NMR titration, chemical shift perturbation, […] fit. Type of test: binding. Conditions: pH 6.8, 37 °C, 20 mM HEPES-d18, 20 mM NaCl, 4 mM Ca2+, 0.7 mM protein.

The target in test [2] is T1, DC-SIGNR CRD. As to the kind of experiment: 1H-15N HSQC NMR titration, chemical shift perturbation. Type of test: binding. Conditions: pH 6.8, 37 °C, 20 mM HEPES-d18, 20 mM NaCl, 4 mM Ca2+, 0.7 mM protein; intermediate exchange, severe line broadening, KD could not be estimated.

The text below walks through data of article PMC3829359 (The Journal of Biological Chemistry, 2021).

For the molecule `OC[C@H]1O[C@H](OC[C@H]2OC(O)[C@@H](O)[C@@H](O[C@H]3O[C@H](CO)[C@@H](O)[C@H](O)[C@@H]3O)[C@@H]2O)[C@@H](O)[C@@H](O)[C@@H]1O` (stereo partly drawn) [Man3], the equilibrium dissociation constant (Kd) (in general, a measure of binding affinity in units of concentration) in test [1] is 2040 ± 540 µM.
For the molecule `OC[C@H]1O[C@H](OC[C@H]2O[C@H](OC[C@H]3OC(O)[C@@H](O)[C@@H](O[C@H]4O[C@H](CO)[C@@H](O)[C@H](O)[C@@H]4O)[C@@H]3O)[C@@H](O)[C@@H](O[C@H]3O[C@H](CO)[C@@H](O)[C@H](O)[C@@H]3O)[C@@H]2O)[C@@H](O)[C@@H](O)[C@@H]1O` (stereo partly drawn) [Man5], the Kd in test [1] was determined as 2200 ± 430 µM.
Turning to `CC(=O)N[C@H]1C(O)O[C@H](CO)[C@@H](O[C@@H]2O[C@H](CO[C@H]3O[C@H](CO[C@H]4O[C@H](CO)[C@@H](O)[C@H](O)[C@@H]4O[C@H]4O[C@H](CO)[C@@H](O)[C@H](O)[C@@H]4O)[C@@H](O)[C@H](O[C@H]4O[C@H](CO)[C@@H](O)[C@H](O)[C@@H]4O[C@H]4O[C@H](CO)[C@@H](O)[C@H](O)[C@@H]4O)[C@@H]3O)[C@@H](O)[C@H](O[C@H]3O[C@H](CO)[C@@H](O)[C@H](O)[C@@H]3O[C@H]3O[C@H](CO)[C@@H](O)[C@H](O)[C@@H]3O[C@H]3O[C@H](CO)[C@@H](O)[C@H](O)[C@@H]3O)[C@@H]2O)[C@@H]1O` (stereo partly drawn) [Man9GlcNAc], the “1H-15N HSQC NMR titration, chemical shift perturbation” value in test [2] is “binding of Man9GlcNAc caused substantial broadening and disappearance of a number of CRD peaks”.
